Assay: xn = mol fraction of the nth substance listed
Details: 101 kPa, Liquid, Direct current cell with electrodes

C[N+](C)(C)CCO.[Cl-] [choline chloride] + OCC(O)CO
electrical conductivity [S/m]
Details | x1 = 0.25 | x1 = 0.34 | x1 = 0.5
298.15 K | 0.1463 | 0.1749 | 0.1929
303.15 K | 0.1553 | 0.1951 | 0.219
308.15 K | 0.203 | 0.2549 | 0.3161
313.15 K | 0.257 | 0.3004 | 0.368
318.15 K | 0.3112 | 0.399 | 0.4603
323.15 K | 0.3816 | 0.512 | 0.5864
328.15 K | 0.4811 | 0.6046 | 0.6668
333.15 K | 0.5757 | 0.7187 | 0.7805
338.15 K | 0.6717 | 0.816 | 0.898
343.15 K | 0.7805 | 0.8955 | 0.9863
348.15 K | 0.9286 | 1.063 | 1.155
353.15 K | 1.08 | 1.219 | 1.295

C[P+](c1ccccc1)(c1ccccc1)c1ccccc1.[Br-] [methyltriphenylphosphonium bromide] + OCC(O)CO
electrical conductivity [S/m]
Details | x1 = 0.2 | x1 = 0.25 | x1 = 0.34
298.15 K | 0.0116 | 0.0103 | 0.0062
303.15 K | 0.0198 | 0.0172 | 0.0124
308.15 K | 0.037 | 0.0319 | 0.0186
313.15 K | 0.041 | 0.0394 | 0.0277
318.15 K | 0.0607 | 0.0549 | 0.0405
323.15 K | 0.0816 | 0.0719 | 0.0496
328.15 K | 0.0965 | 0.0927 | 0.0701
333.15 K | 0.1233 | 0.1124 | 0.0858
338.15 K | 0.1608 | 0.1487 | 0.116
343.15 K | 0.1971 | 0.1778 | 0.1493
348.15 K | 0.2874 | 0.2196 | 0.1811
353.15 K | 0.3594 | 0.2599 | 0.2154

CCN(CC)CCO.Cl [2-(diethylamino)ethanol hydrochloride] + OCCO
electrical conductivity [S/m]
Details | x1 = 0.2 | x1 = 0.25 | x1 = 0.34
298.15 K | 0.5661 | 0.543 | 0.512
303.15 K | 0.6994 | 0.6878 | 0.6627
308.15 K | 0.8245 | 0.8305 | 0.794
313.15 K | 0.9699 | 0.9486 | 0.9283
318.15 K | 1.158 | 1.134 | 1.095
323.15 K | 1.341 | 1.315 | 1.254
328.15 K | 1.509 | 1.477 | 1.433
333.15 K | 1.714 | 1.666 | 1.616
338.15 K | 1.875 | 1.839 | 1.778
343.15 K | 2.029 | 1.99 | 1.942
348.15 K | 2.226 | 2.192 | 2.135
353.15 K | 2.405 | 2.367 | 2.31

C[N+](C)(C)CCO.[Cl-] [choline chloride] + OCCO
electrical conductivity [S/m]
Details | x1 = 0.28 | x1 = 0.34 | x1 = 0.36
298.15 K | 0.832 | 0.733 | 0.68
303.15 K | 1.067 | 1.019 | 0.9138
308.15 K | 1.207 | 1.141 | 1.086
313.15 K | 1.413 | 1.355 | 1.294
318.15 K | 1.656 | 1.589 | 1.479
323.15 K | 1.798 | 1.718 | 1.633
328.15 K | 2.126 | 2.023 | 1.839
333.15 K | 2.425 | 2.299 | 2.01
338.15 K | 2.515 | 2.42 | 2.177
343.15 K | 2.627 | 2.56 | 2.347
348.15 K | 2.78 | 2.707 | 2.475
353.15 K | 2.869 | 2.8072 | 2.604

CCN(CC)CCO.Cl [2-(diethylamino)ethanol hydrochloride] + OCC(O)CO
electrical conductivity [S/m]
Details | x1 = 0.2 | x1 = 0.25 | x1 = 0.34
298.15 K | 0.0487 | 0.0602 | 0.075
303.15 K | 0.078 | 0.0958 | 0.118
308.15 K | 0.11 | 0.104 | 0.164
313.15 K | 0.139 | 0.156 | 0.207
318.15 K | 0.188 | 0.211 | 0.2716
323.15 K | 0.2357 | 0.264 | 0.3381
328.15 K | 0.2716 | 0.3426 | 0.3903
333.15 K | 0.3246 | 0.4086 | 0.4878
338.15 K | 0.3962 | 0.4916 | 0.5754
343.15 K | 0.4646 | 0.5748 | 0.6521
348.15 K | 0.5335 | 0.6474 | 0.7754
353.15 K | 0.6095 | 0.71 | 0.9109

C[P+](c1ccccc1)(c1ccccc1)c1ccccc1.[Br-] [methyltriphenylphosphonium bromide] + OCCO
electrical conductivity [S/m]
Details | x1 = 0.16 | x1 = 0.2 | x1 = 0.25
298.15 K | 0.194 | 0.156 | 0.109
303.15 K | 0.257 | 0.219 | 0.16
308.15 K | 0.3103 | 0.2649 | 0.1914
313.15 K | 0.3845 | 0.3246 | 0.2502
318.15 K | 0.4437 | 0.3858 | 0.2964
323.15 K | 0.5072 | 0.4405 | 0.3265
328.15 K | 0.6279 | 0.5395 | 0.4307
333.15 K | 0.711 | 0.6221 | 0.5129
338.15 K | 0.8169 | 0.7423 | 0.5797
343.15 K | 0.9496 | 0.8192 | 0.6923
348.15 K | 1.031 | 0.9074 | 0.7372
353.15 K | 1.12 | 1.003 | 0.8114
